Consider one molecule from article PMC11035414, “A comparison study of dynamic [^18F]Alfatide II imaging and [^11C]MET in orthotopic rat models of glioblastoma” (Journal of Cancer Research and Clinical Oncology, 2024).

Data set [1] relates to orthotopic GBM rat models (C6 glioma cells). The data set is described as follows: Dynamic PET/MR imaging, semi-quantitative analysis (SUVmean, TNR, time-activity curves). Conditions: in vivo. The protocol: C6 glioma cells from GuYan Biotech Co., Ltd. (Shanghai, China) were cultured in DMEM at 37 °C and 5% CO2. After two generations of cell culture, C6 cells were trypsinized and resuspended at the concentration of 1 × 10^7 cells/mL to prepare GBM model. […] After the hair on the top of the head was cut off, a small hole with a diameter of about 2 mm was drilled at the intersection of the left side of sagittal suture 3 mm and the front side of coronal suture 1 mm. […] After administering the injection, the syringe was carefully withdrawn. The burr hole was then sealed with bone wax, followed by suturing the skin closed. […] Simultaneous dynamic PET and MRI was performed with 150 mm field of view for whole-body mouse imaging. For [^18[…] imaging, the rat models received the intravenous bolus injection of 13.0 ± 2.1 MBq of the radiotracer. […] We conducted [^11C]MET and [^18[…] scans on 20 rats, with a time interval of no more than 48 h between the scans using the two tracers. […] On the PET image with both radiotracers, the MRI-based volume-of-interest (VOI) was manually delineated encompassing glioblastoma. […] The following parameters were extracted from TACs: time to peak (TTP) and slope of curve.

Data set [2] has as its system C6 glioblastoma-bearing rats. Briefly: Ex vivo biodistribution study (γ counter). Conditions: rat, in vivo. The protocol: Biodistribution study: […] The tumors and major tissue organs (blood, brain, heart, lungs, liver, spleen, blander, kidneys, bowel, muscle, femur and tumor) were collected. Tissues and organs were washed with normal saline and dried, and weighed using an electronic scale. The radioactivity counts of tissues and organs were measured with a γ counter, and the corresponding radioactivity value (%ID/g) was calculated after time attenuation correction.

On to `[11CH3]SCC[C@H](N)C(=O)O` [[^11C]MET, [^11C]methionine], for which, in data set [1], the “SUVmean in contralateral normal brain tissue” value stood at 0.39 ± 0.12 and the “tumor-to-normal brain ratio (TNR)” value stood at 2.91 ± 0.81. For the same molecule, in data set [2], the “normal organ(s) with the highest uptake, ex vivo” value is given as “liver”.
